Data published in patent US9227979B2, “Fluorescent antagonists of the A3 adenosine receptor” (The United States of America, as represented by the …, priority 2012, dated 2016).
Read-outs that look alike come from different tables or passages of the source.

Assays:
hA3AR = hA3AR (Homo sapiens (Human), UniProt P0DMS8); experiment: Radioligand membrane binding assay at hA3AR ([125I]I-AB-MECA); settings: read-out: A3 Ki
Method: (§1) For cell cultures used in radioligand binding assays, after harvest and homogenization, the cells were centrifuged at 200×g for 10 min, and the pellet was re-suspended in 50 mM Tris-HCl buffer (pH 7.5), containing 10 mM MgCl2. The suspension was homogenized with an electric homogenizer for 10 s and was then re-centrifuged at 20,000×g for 20 min at 4° C. The resultant membrane pellets were resuspended in buffer in the presence of 3 units/ml adenosine deaminase, and the suspension was stored at −80° C. until the binding experiments. The protein concentration was measured using the Bradford assay. Radioligand membrane binding assays

hA1 AR = hA1 AR (Homo sapiens (Human), UniProt P30542); experiment: Radioligand membrane binding assay at hA1 AR ([3H]R-PIA); settings: for Ki: read-out: A1 Ki
Sequence of hA1 AR (P30542 whole entry): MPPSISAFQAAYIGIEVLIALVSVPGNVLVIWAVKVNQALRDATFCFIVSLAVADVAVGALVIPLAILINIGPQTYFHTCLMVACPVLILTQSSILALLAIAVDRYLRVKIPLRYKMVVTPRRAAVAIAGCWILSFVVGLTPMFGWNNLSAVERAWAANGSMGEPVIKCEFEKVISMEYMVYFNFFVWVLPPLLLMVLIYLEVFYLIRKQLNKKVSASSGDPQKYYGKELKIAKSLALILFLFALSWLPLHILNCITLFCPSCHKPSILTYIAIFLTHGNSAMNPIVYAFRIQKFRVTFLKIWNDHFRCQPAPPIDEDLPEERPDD
Method: as §1

hA2AAR = hA2AAR (Homo sapiens (Human), UniProt P29274); experiment: Radioligand membrane binding assay at hA2A AR ([3H]CGS21680); settings: for Ki: read-out: A2A Ki
Sequence of hA2AAR (P29274 whole entry): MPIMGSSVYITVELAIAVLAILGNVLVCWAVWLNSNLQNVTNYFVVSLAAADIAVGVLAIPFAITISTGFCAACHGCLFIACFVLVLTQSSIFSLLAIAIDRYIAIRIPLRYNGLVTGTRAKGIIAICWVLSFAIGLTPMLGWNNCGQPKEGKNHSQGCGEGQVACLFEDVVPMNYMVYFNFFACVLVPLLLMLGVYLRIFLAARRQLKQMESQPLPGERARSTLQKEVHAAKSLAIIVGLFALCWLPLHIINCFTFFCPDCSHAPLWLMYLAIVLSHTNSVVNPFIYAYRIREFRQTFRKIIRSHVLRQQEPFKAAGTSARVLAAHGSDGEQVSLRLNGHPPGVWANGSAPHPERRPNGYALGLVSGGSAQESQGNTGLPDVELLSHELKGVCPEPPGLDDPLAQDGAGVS
Method: as §1

[1] = Table 1, CHO cells expressing hA3AR, [125I]I-AB-MECA
[2] = Table 1, inhibition of radioligand binding at 10 μM
[3] = Table 1, HEK293 cells expressing hA2AAR, [3H]CGS21680
[4] = Table 1, CHO cells expressing hA1AR, agonist radioligand [3H]R-PIA

Sequence of hA3AR (P0DMS8 whole entry): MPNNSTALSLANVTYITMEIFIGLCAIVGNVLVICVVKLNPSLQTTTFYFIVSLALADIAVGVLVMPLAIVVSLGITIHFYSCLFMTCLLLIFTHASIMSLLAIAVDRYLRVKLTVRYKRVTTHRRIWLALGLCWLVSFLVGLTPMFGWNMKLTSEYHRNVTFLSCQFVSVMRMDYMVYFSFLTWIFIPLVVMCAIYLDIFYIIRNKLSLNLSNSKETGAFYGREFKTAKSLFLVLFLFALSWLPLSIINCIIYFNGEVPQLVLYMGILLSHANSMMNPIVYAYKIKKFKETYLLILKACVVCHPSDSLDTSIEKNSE

Row | Compound | Ki (hA3AR; Table 3) [nM] | A1 % inhibition (hA1 AR; Table 3) | Ki (hA2AAR; Table 3) [nM] | Ki (hA3AR; [1]) [nM] | Ki (hA2AAR; [3]) [nM] | other results
1 | Cn1cc2c(nc(NC(=O)Nc3ccc(CC(=O)NCCCCCNC(=S)Nc4ccc5c(c4)C(=O)OC54c5ccc(O)cc5Oc5cc(O)ccc54)cc3)n3nc(-c4ccco4)nc23)n1 [Compound 24, N-(5-(3-(Fluorescein-5-yl)thioureido)pentyl)-2-(4-(3-(2-(furan-2-yl)-8-methyl-8H-pyrazolo[4,3-e][1,2,4]triazolo[1,5-c]pyrimidin-5-yl)ureido)phenyl)acetamide] | 96.7 ± 26.9 | 21% ± 5% | 106 ± 14 |  |  | 
2 | Cn1cc2c(nc(NC(=O)Nc3ccc(CC(=O)NCCCCNC(=S)Nc4ccc5c(c4)C(=O)OC54c5ccc(O)cc5Oc5cc(O)ccc54)cc3)n3nc(-c4ccco4)nc23)n1 [Compound 23, N-(4-(3-(Fluorescein-5-yl)thioureido)butyl)-2-(4-(3-(2-(furan-2-yl)-8-methyl-8H-pyrazolo[4,3-e][1,2,4]triazolo[1,5-c]pyrimidin-5-yl)ureido)phenyl)acetamide] | 73.6 ± 14.7 | 28% ± 8% | 60.4 ± 6.2 |  |  | 
3 | Cn1cc2c(nc(NC(=O)Nc3ccc(CC(=O)NCCCN)cc3)n3nc(-c4ccco4)nc23)n1.O=C(O)C(F)(F)F [Compound 17, N-(3-aminopropyl)-2-(4-(3-(2-(furan-2-yl)-8-methyl-8H-pyrazolo[4,3-e][1,2,4]triazolo[1,5-c]pyrimidin-5-yl)ureido)phenyl)acetamide trifluoroacetate salt] | 8.06 ± 2.47 | 9% ± 3% | 175 ± 27 |  |  | melting point: 142 to 150 °C
4 | Cn1cc2c(nc(NC(=O)Nc3ccc(CC(=O)NCCOCCOCCNC(=S)Nc4ccc5c(c4)C(=O)OC54c5ccc(O)cc5Oc5cc(O)ccc54)cc3)n3nc(-c4ccco4)nc23)n1 [Compound 25, N-(2-(2-(2-(3-(Fluorescein-5-yl)thioureido)ethoxy)ethoxy)ethyl)-2-(4-(3-(2-(furan-2-yl)-8-methyl-8H-pyrazolo[4,3-e][1,2,4]triazolo[1,5-c]pyrimidin-5-yl)ureido)phenyl)acetamide] | 137 ± 28 | 29% ± 1% | 95.7 ± 25.4 |  |  | 
5 | C#CCCC(=O)Nc1nc2nn(C)cc2c2nc(-c3ccco3)nn12 [Compound 36, N-(2-(furan-2-yl)-8-methyl-8H-pyrazolo[4,3-e][1,2,4]triazolo[1,5-e]pyrimidin-5-yl)pent-4-ynamide] | 11 ± 0.6 | 55% ± 4% | 133 ± 37 |  |  | 
6 | Cn1cc2c(nc(NC(=O)Nc3ccc(CC(=O)NCCCCCNC(=O)OC(C)(C)C)cc3)n3nc(-c4ccco4)nc23)n1 [Compound 14, tert-Butyl (5-(2-(4-(3-(2-(furan-2-yl)-8-methyl-8H-pyrazolo[4,3-e][1,2,4]triazolo[1,5-c]pyrimidin-5-yl)ureido)phenyl)acetamido)pentyl)carbamate] | 4.47 ± 1.06 | 14% ± 3% | 376 ± 96 |  |  | 
7 | C#CCCCCC(=O)Nc1nc2nn(C)cc2c2nc(-c3ccco3)nn12 [Compound 38, N-(2-(furan-2-yl)-8-methyl-8H-pyrazolo[4,3-e][1,2,4]triazolo[1,5-c]pyrimidin-5-yl)hept-6-ynamide] | 7.26 ± 1.04 |  | 151 ± 33 |  |  | Ki (hA1 AR; Table 3): 891 ± 265 nM; melting point: 208 to 215 °C (dec.)
8 | Cn1cc2c(nc(NC(=O)Nc3ccc(CC(=O)NCCCNC(=S)Nc4ccc5c(c4)C(=O)OC54c5ccc(O)cc5Oc5cc(O)ccc54)cc3)n3nc(-c4ccco4)nc23)n1 [Compound 22, N-(3-(3-(Fluorescein-5-yl)thioureido)propyl)-2-(4-(3-(2-(furan-2-yl)-8-methyl-8H-pyrazolo[4,3-e][1,2,4]triazolo[1,5-c]pyrimidin-5-yl)ureido)phenyl)acetamide] | 104 ± 44 | 27% ± 1% | 110 ± 18 |  |  | 
9 | Cn1cc2c(nc(NCCCCNC(=S)Nc3ccc(-c4c5ccc(=O)cc-5oc5cc(O)ccc45)c(C(=O)O)c3)n3nc(-c4ccco4)nc23)n1 [Compound 3] |  |  |  | 720 | 460 ± 60 | A1 % inhibition (hA1 AR; [2]): (7 ± 5%)
10 | Cn1cc2c(nc(NC(=O)Nc3ccc(CC(=O)NCCCCCN)cc3)n3nc(-c4ccco4)nc23)n1.O=C(O)C(F)(F)F [Compound 19, N-(5-aminopentyl)-2-(4-(3-(2-(furan-2-yl)-8-methyl-8H-pyrazolo[4,3-e][1,2,4]triazolo[1,5-c]pyrimidin-5-yl)ureido)phenyl)acetamide trifluoroacetate salt] | 2.66 ± 0.48 | 6% ± 4% | 203 ± 52 |  |  | melting point: 170 to 178 °C
11 | Cn1cc2c(nc(NCCOOCCCCNC(=S)Nc3ccc(-c4c5ccc(=O)cc-5oc5cc(O)ccc45)c(C(=O)O)c3)n3nc(-c4ccco4)nc23)n1 [Compound 5] |  |  |  | 9390 ± 1730 |  | A1 % inhibition (hA1 AR; [2]): (0%); A2A % Inhibition (hA2AAR; [2]): (30 ± 6%)
12 | Cn1cc2c(nc(NC(=O)CCCc3cn(CCCCCCNC(=O)c4ccc(-c5c6ccc(=N)c(S(=O)(=O)O)c-6oc6c(S(=O)(=O)O)c(N)ccc56)c(C(=O)O)c4)nn3)n3nc(-c4ccco4)nc23)n1 [MRS5763] | 31.8 |  | 90 |  |  | 
13 | Cn1cc2c(nc(NC(=O)Nc3ccc(CC(=O)NCCCOCCOCCOCCCNC(=S)Nc4ccc5c(c4)C(=O)OC54c5ccc(O)cc5Oc5cc(O)ccc54)cc3)n3nc(-c4ccco4)nc23)n1 [Compound 26, N-(1((Fluorescein-5-yl)amino)-1-thioxo-6,9,12-trioxa-2-azapentadecan-15-yl)-2-(4-(3-(2-(furan-2-yl)-8-methyl-8H-pyrazolo[4,3-e][1,2,4]triazolo[1,5-c]pyrimidin-5-yl)ureido)phenyl)acetamide] | 207 ± 95 | 32% ± 6% | 91.5 ± 20 |  |  | 
14 | Cn1cc2c(nc(NCCCCCNC(=S)Nc3ccc(-c4c5ccc(=O)cc-5oc5cc(O)ccc45)c(C(=O)O)c3)n3nc(-c4ccco4)nc23)n1 [Compound 4] |  |  |  | 5660 ± 610 | 1750 ± 470 | A1 % inhibition (hA1 AR; [2]): (9 ± 5%)
15 | Cn1cc2c(nc(NC(=O)Nc3ccc(CC(=O)O)cc3)n3nc(-c4ccco4)nc23)n1 [Compound 11, 2-(4-(3-(2-(furan-2-yl)-8-methyl-8H-pyrazolo[4,3-e][1,2,4]triazolo[1,5-c]pyrimidin-5-yl)ureido)phenyl)acetic acid] | 128 ± 26 |  | 1010 |  |  | 
16 | Cn1cc2c(nc(NCCCOCCOOCCCCCNC(=S)Nc3ccc(-c4c5ccc(=O)cc-5oc5cc(O)ccc45)c(C(=O)O)c3)n3nc(-c4ccco4)nc23)n1 [Compound 6] |  |  |  | 7090 ± 370 | 6010 ± 420 | A1 % inhibition (hA1 AR; [2]): (0%)
17 | Cn1cc2c(nc(NNC(=S)Nc3ccc(-c4c5ccc(=O)cc-5oc5cc(O)ccc45)c(C(=O)O)c3)n3nc(-c4ccco4)nc23)n1 [Compound 1] |  |  |  | 780 | 920 ± 110 | Ki (hA1 AR; [4]): 9500 nM
18 | Cn1cc2c(nc(NCCCNC(=S)Nc3ccc(-c4c5ccc(=O)cc-5oc5cc(O)ccc45)c(C(=O)O)c3)n3nc(-c4ccco4)nc23)n1 [Compound 2] |  |  |  | 2390 ± 660 | 2480 ± 420 | A1 % inhibition (hA1 AR; [2]): (5 ± 2%)
19 | C#CCCCC(=O)Nc1nc2ccc(Cl)cc2c2nc(-c3ccco3)nn12 [Compound 8, N-(9-Chloro-2-(furan-2-yl)-[1,2,4]triazolo[1,5-c]quinazolin-5-yl)hex-5-ynamide] |  |  |  | 33.5 ± 10.1 | 51 ± 10 | Ki (hA1 AR; [4]): 170 ± 40 nM
20 | C#CCCCC(=O)Nc1nc2nn(C)cc2c2nc(-c3ccco3)nn12 [Compound 37, N-(2-(furan-2-yl)-8-methyl-8H-pyrazolo[4,3-e][1,2,4]triazolo[1,5-c]pyrimidin-5-yl)hex-5-ynamide] | 4.11 ± 0.93 |  | 199 |  |  | melting point: 210 to 216 °C (dec.)
